Inconclusive results and toxic doses are left out.
Test system: CD2F1 mice, L1210 leukemia ip, survival T/C
Test: NCI In Vivo Anticancer Drug Screen. Data for tumor model L1210 Leukemia (intraperitoneal) in CD2F1 (CDF1) mice
Conditions: endpoint: mean survival time, higher = longer survival
Method in brief: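 Tumor-bearing mice (transplanted tumor) were split into treated and vehicle control groups, and the measured endpoint of each treated group was divided by that of its vehicle controls.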

[1] = dose: 100.0 mg/kg/injection, schedule: Q04DX003 (ip), vehicle: saline with Tween-80
[2] = dose: 200.0 mg/kg/injection, schedule: Q04DX003 (ip), vehicle: saline with Tween-80
[3] = dose: 50.0 mg/kg/injection, schedule: Q01DX009 (ip), vehicle: saline
[4] = dose: 100.0 mg/kg/injection, schedule: Q01DX009 (ip), vehicle: saline
[5] = dose: 100.0 mg/kg/injection, schedule: Q01DX001 (ip), vehicle: saline
[6] = dose: 200.0 mg/kg/injection, schedule: Q01DX001 (ip), vehicle: saline
[7] = dose: 400.0 mg/kg/injection, schedule: Q01DX001 (ip), vehicle: saline

For O=C1C(Br)=C(Br)C(=O)C1(Br)Br, the T/C (dose: 6.25 mg/kg/injection, schedule: Q01DX009 (ip), vehicle: saline with Tween-80) was 97 % of control, the T/C (dose: 12.5 mg/kg/injection, schedule: Q01DX009 (ip), vehicle: saline with Tween-80) was 103 % of control and the T/C (dose: 25.0 mg/kg/injection, schedule: Q01DX009 (ip), vehicle: saline with Tween-80) was 92 % of control.
In the case of CS(=O)(=O)OCCN(CCOS(C)(=O)=O)c1ccc(N=Nc2ccccc2C(=O)O)cc1, the T/C (dose: 1.56 mg/kg/injection, schedule: Q01DX009 (ip), vehicle: Klucel (hydroxypropylcellulose) (HPC)) is reported as 124 % of control, the T/C (dose: 3.12 mg/kg/injection, schedule: Q01DX009 (ip), vehicle: Klucel (hydroxypropylcellulose) (HPC)) is reported as 155 % of control and the T/C (dose: 6.25 mg/kg/injection, schedule: Q01DX009 (ip), vehicle: Klucel (hydroxypropylcellulose) (HPC)) is reported as 176 % of control.
With CCOCc1cc(C)[nH]c(=O)c1C#N the T/C [1] was 96 % of control and the T/C [2] was 98 % of control.
In the case of Cn1c(C[N+](C)(C)C)cc2ccccc21, the T/C [3] is reported as 90 % of control and the T/C [4] is reported as 93 % of control.
In the case of C1CCC(C2CCCC[N-]2)[N-]C1.C1CCC(C2CCCC[N-]2)[N-]C1.O=C(O)C(=O)O.[Ru+4] (centres undefined), the T/C (dose: 3.13 mg/kg/injection, schedule: Q04DX003 (ip), vehicle: water) is reported as 101 % of control, the T/C (dose: 6.25 mg/kg/injection, schedule: Q04DX003 (ip), vehicle: water) is reported as 93 % of control and the T/C (dose: 12.5 mg/kg/injection, schedule: Q04DX003 (ip), vehicle: water) is reported as 96 % of control. The T/C (dose: 25.0 mg/kg/injection, schedule: Q04DX003 (ip), vehicle: water) was 93 % of control, the T/C (dose: 50.0 mg/kg/injection, schedule: Q04DX003 (ip), vehicle: water) was 93 % of control and the T/C (dose: 100.0 mg/kg/injection, schedule: Q04DX003 (ip), vehicle: water) was 95 % of control. The T/C (dose: 200.0 mg/kg/injection, schedule: Q04DX003 (ip), vehicle: water) was 91 % of control.
With CCCCC/C(C)=N\O the T/C [3] was 98 % of control, the T/C [5] was 104 % of control and the T/C [4] was 98 % of control. The T/C [1] was 103 % of control, the T/C [6] was 95 % of control and the T/C (dose: 200.0 mg/kg/injection, schedule: Q01DX009 (ip), vehicle: saline) was 101 % of control. For the same compound, the T/C [2] was 97 % of control and the T/C [7] was 98 % of control.
In the case of COc1ccc([I+]c2ccc(OC)cc2)cc1, the T/C (dose: 1.5 mg/kg/injection, schedule: Q01DX009 (ip), vehicle: saline with Tween-80) is reported as 101 % of control, the T/C (dose: 3.0 mg/kg/injection, schedule: Q01DX009 (ip), vehicle: saline with Tween-80) is reported as 104 % of control and the T/C (dose: 6.0 mg/kg/injection, schedule: Q01DX009 (ip), vehicle: saline with Tween-80) is reported as 107 % of control. For the same compound, the T/C (dose: 12.5 mg/kg/injection, schedule: Q04DX003 (ip), vehicle: saline with Tween-80) was 97 % of control, the T/C (dose: 25.0 mg/kg/injection, schedule: Q04DX003 (ip), vehicle: saline with Tween-80) was 93 % of control and the T/C (dose: 50.0 mg/kg/injection, schedule: Q04DX003 (ip), vehicle: saline with Tween-80) was 93 % of control.
CCOC(=O)C1CC2(CC(C(=O)O)C2)C1 (centres undefined) was tested, and the T/C [5] was 97 % of control, the T/C [6] was 93 % of control and the T/C [7] was 105 % of control.
With CCOC(=O)COC(=O)CN1C(=O)c2ccccc2C1=O the T/C (dose: 50.0 mg/kg/injection, schedule: Q01DX001 (ip), vehicle: water) was 93 % of control, the T/C (dose: 100.0 mg/kg/injection, schedule: Q01DX001 (ip), vehicle: water) was 98 % of control and the T/C (dose: 200.0 mg/kg/injection, schedule: Q01DX001 (ip), vehicle: water) was 104 % of control. For the same compound, the T/C (dose: 400.0 mg/kg/injection, schedule: Q01DX001 (ip), vehicle: water) was 94 % of control.
With O=C(C[P+](c1ccccc1)(c1ccccc1)c1ccccc1)C[P+](c1ccccc1)(c1ccccc1)c1ccccc1 the T/C [5] was 97 % of control, the T/C [6] was 95 % of control and the T/C [7] was 92 % of control.
Cc1cc(NC(=O)Nc2cc(F)ccc2F)no1 was tested, and the T/C (dose: 25.0 mg/kg/injection, schedule: Q01DX009 (ip), vehicle: Klucel (hydroxypropylcellulose) (HPC)) was 101 % of control, the T/C (dose: 50.0 mg/kg/injection, schedule: Q01DX009 (ip), vehicle: Klucel (hydroxypropylcellulose) (HPC)) was 103 % of control and the T/C (dose: 100.0 mg/kg/injection, schedule: Q01DX009 (ip), vehicle: Klucel (hydroxypropylcellulose) (HPC)) was 101 % of control.
